{
  "source": "the supplement of paper PMC10307832",
  "assay_in_all_cases": "relative viability (nuclei count vs DMSO), 5 days (fraction); higher = more cells survive",
  "key": {"RU-SKI 43 + Foretinib": {"compound": "CC[C@@H](C)CNCC(=O)N1CCC2=C([C@@H]1COC3=CC=CC(=C3)C)C=CS2 [RU-SKI 43] + COc1cc2c(Oc3ccc(NC(=O)C4(C(=O)Nc5ccc(F)cc5)CC4)cc3F)ccnc2cc1OCCCN1CCOCC1 [Foretinib] (partner 0.25 µM)", "summary_of_the_method": "(§1)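 One day after seeding in 1536-well plates, lung cancer cell lines were dosed by pin tool. Dosing was either single-drug or a fixed anchor-drug dose plus five library-drug doses (not always all listed) in √10 steps. After 5 days, nuclei were stained in one fix-and-stain step and counted on 4× images, and relative viability is the nuclei count of treated wells over that of vehicle wells, given as the median of duplicate plates.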"}, "Irinotecan + Foretinib": {"compound": "CCc1c2c(nc3ccc(OC(=O)N4CCC(N5CCCCC5)CC4)cc13)-c1cc3c(c(=O)n1C2)COC(=O)[C@]3(O)CC [Irinotecan] + COc1cc2c(Oc3ccc(NC(=O)C4(C(=O)Nc5ccc(F)cc5)CC4)cc3F)ccnc2cc1OCCCN1CCOCC1 [Foretinib] (partner 0.25 µM)", "summary_of_the_method": "as §1"}, "Irinotecan + Navitoclax": {"compound": "CCc1c2c(nc3ccc(OC(=O)N4CCC(N5CCCCC5)CC4)cc13)-c1cc3c(c(=O)n1C2)COC(=O)[C@]3(O)CC [Irinotecan] + CC1(C)CCC(c2ccc(Cl)cc2)=C(CN2CCN(c3ccc(C(=O)NS(=O)(=O)c4ccc(N[C@H](CCN5CCOCC5)CSc5ccccc5)c(S(=O)(=O)C(F)(F)F)c4)cc3)CC2)C1 [Navitoclax] (partner 0.5 µM)", "summary_of_the_method": "as §1"}, "MK-8033 + Lapatinib": {"compound": "Cn1cc(-c2cnc3ccc4ccc(CS(=O)(=O)NCc5ccccn5)cc4c(=O)c3c2)cn1 [MK-8033] + CS(=O)(=O)CCNCc1ccc(-c2ccc3ncnc(Nc4ccc(OCc5cccc(F)c5)c(Cl)c4)c3c2)o1 [Lapatinib] (partner 2 µM)", "summary_of_the_method": "as §1"}},
  "data": [
    {"cell line": "UMC-11", "values": [
      {"measurement": "relative viability", "setting": "RU-SKI 43 + Foretinib; first compound 0.1 µM", "result": 1.07},
      {"measurement": "relative viability", "setting": "RU-SKI 43 + Foretinib; first compound 0.3162 µM", "result": 1.14},
      {"measurement": "relative viability", "setting": "RU-SKI 43 + Foretinib; first compound 1 µM", "result": 1.05},
      {"measurement": "relative viability", "setting": "RU-SKI 43 + Foretinib; first compound 3.162 µM", "result": 1.14},
      {"measurement": "relative viability", "setting": "RU-SKI 43 + Foretinib; first compound 10 µM", "result": 1.03},
      {"measurement": "relative viability", "setting": "Irinotecan + Foretinib; first compound 0.6325 µM", "result": 0.704},
      {"measurement": "relative viability", "setting": "Irinotecan + Foretinib; first compound 2 µM", "result": 0.518},
      {"measurement": "relative viability", "setting": "Irinotecan + Foretinib; first compound 6.325 µM", "result": 0.337},
      {"measurement": "relative viability", "setting": "Irinotecan + Foretinib; first compound 20 µM", "result": 0.237},
      {"measurement": "relative viability", "setting": "Irinotecan + Navitoclax; first compound 0.6325 µM", "result": 0.235},
      {"measurement": "relative viability", "setting": "Irinotecan + Navitoclax; first compound 2 µM", "result": 0.208},
      {"measurement": "relative viability", "setting": "Irinotecan + Navitoclax; first compound 6.325 µM", "result": 0.163},
      {"measurement": "relative viability", "setting": "Irinotecan + Navitoclax; first compound 20 µM", "result": 0.147},
      {"measurement": "relative viability", "setting": "MK-8033 + Lapatinib; first compound 0.02 µM", "result": 1.02},
      {"measurement": "relative viability", "setting": "MK-8033 + Lapatinib; first compound 0.06325 µM", "result": 0.522},
      {"measurement": "relative viability", "setting": "MK-8033 + Lapatinib; first compound 0.2 µM", "result": 0.866},
      {"measurement": "relative viability", "setting": "MK-8033 + Lapatinib; first compound 0.6325 µM", "result": 1.04},
      {"measurement": "relative viability", "setting": "MK-8033 + Lapatinib; first compound 2 µM", "result": 0.944}
    ]}
  ]
}
